Biological target: T1, receptor tyrosine kinase EGFR (Homo sapiens, UniProt P00533)
T1 construct: purchased Shanghai 3bio Technology Co., Ltd. Lot No. 4018780925
Test: Inhibitory effect on receptor tyrosine kinase EGFR (ELISA, Poly(Glu, Tyr)4:1, PY99 antibody)
Format: biochemical
Conditions: ATP 4 μM, 1 hour at 37° C.
Method: Poly(Glu, Tyr)4:1 was diluted into 100 μg/ml by PBS without potassium. Enzyme label plate was coated with 37 μl/well at 37° C. overnight,
The liquid in the wells was removed. The plate was rinsed by T-PBS for 5 minutes, and dried at 37° C. after repeated 3 times.
The testing sample was diluted to the concentration concerned by reaction buffer solution, and added into the wells of the coated enzyme label plate. The concentration diluted should realize 1.0000 μg/ml, 0.1250 μg/ml, 0.0156 μg/ml, 0.00195 μg/ml and 0.00024 μg/ml in the 100 μl reaction.
Adding in ATP solution (4 μM of final concentration) diluted by reaction buffer solution,
Finally, the tyrosine kinase diluted by reaction buffer solution was added, and forming the reaction with 100 μl total volume.
Meanwhile, negative control wells and enzyme-free control wells were prepared. The reaction was kept in the dark wet box for 1 hour at 37° C. The plate was rinsed by T-PBS for three times after the reaction ended, and blocked by 1% BSA […] for 30 min, and then, PY99 antibody (1:1000 diluted by 0.05% PBST with 1% BSA) was added in 100 μl/well. After incubated at 37° C. for 30 minutes, the plate was rinsed by T-PBS for three times, and the goat anti-mouse IgG marked with HRP (1 mg/ml 1:1000 diluted by 0.05% PBST with 1% BSA) was then added in 100 μl/well. After incubated at 37° C. for 30 minutes, the plate was rinsed by T-PBS for three times.
Colorimetric solution OPD was added in 100 μl/well for 20 minutes' reaction in the dark side at the room temperature. Colorimetric substrate solution OPD was the solution of 0.1 mol/L citric acid-disodium hydrogen phosphate buffer (pH 5.0) with 20 mmol/L OPD and 12 mmol/L H2O2 (freshly prepared when using).
50 μl of 2M H2SO4 (2 mol/L sulfuric acid containing 0.1 mol/L sodium sulfate) was added in to terminate the reaction, and the A492 value was read with adjustable wavelength micro late enzyme-labeling instrument VERSAmax.
The inhibition rate of samples is calculated by the following formula: […]

T1 sequence (P00533 25-1210): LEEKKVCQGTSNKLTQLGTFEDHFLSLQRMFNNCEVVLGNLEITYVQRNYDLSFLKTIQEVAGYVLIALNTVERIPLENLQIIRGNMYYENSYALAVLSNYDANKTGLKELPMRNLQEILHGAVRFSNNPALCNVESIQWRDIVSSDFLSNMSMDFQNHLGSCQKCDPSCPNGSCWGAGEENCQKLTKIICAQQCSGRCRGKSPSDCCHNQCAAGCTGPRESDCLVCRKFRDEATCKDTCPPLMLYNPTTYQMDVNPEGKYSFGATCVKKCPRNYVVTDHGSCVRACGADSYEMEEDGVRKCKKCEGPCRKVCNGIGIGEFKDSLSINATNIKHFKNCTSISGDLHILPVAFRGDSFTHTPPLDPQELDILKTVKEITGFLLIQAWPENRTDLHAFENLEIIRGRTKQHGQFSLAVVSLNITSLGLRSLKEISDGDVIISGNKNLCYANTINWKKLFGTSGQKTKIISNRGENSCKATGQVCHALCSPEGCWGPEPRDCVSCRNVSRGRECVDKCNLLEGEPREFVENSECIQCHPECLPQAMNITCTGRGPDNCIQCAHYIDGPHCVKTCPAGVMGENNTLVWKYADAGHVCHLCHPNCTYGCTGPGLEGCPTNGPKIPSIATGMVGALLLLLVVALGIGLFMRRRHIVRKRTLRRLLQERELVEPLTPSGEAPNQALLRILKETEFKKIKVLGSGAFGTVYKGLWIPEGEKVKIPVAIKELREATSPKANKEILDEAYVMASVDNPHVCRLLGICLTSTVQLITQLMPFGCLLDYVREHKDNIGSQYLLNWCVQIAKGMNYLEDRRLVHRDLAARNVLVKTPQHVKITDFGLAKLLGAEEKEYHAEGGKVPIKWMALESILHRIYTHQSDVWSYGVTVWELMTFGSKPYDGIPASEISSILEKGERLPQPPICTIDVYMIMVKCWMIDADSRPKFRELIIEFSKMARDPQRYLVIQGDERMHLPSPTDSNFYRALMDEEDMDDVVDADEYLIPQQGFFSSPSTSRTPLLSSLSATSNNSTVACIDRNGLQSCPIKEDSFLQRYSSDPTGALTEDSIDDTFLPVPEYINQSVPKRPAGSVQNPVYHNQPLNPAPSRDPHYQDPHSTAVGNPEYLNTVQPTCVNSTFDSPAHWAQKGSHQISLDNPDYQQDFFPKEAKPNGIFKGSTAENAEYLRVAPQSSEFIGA

SMILES	IC50 [nM]
C#Cc1cccc(Nc2ncnc3cc(OC)c(OCCCN4CCC5(CCOC5)C4)cc23)c1 (stereo not shown) [Example 40, 4-(3′-ethynylphenylamino)-6-[3-(2-oxa-7-azaspiro[4.4]-nonane-7-yl)-propoxy]-7-methoxyquinazoline]	10 to 100
COc1cc2ncnc(Nc3cccc(Cl)c3F)c2cc1OCCCN1CCC2(CC1)CNC(=O)O2 [Example 34, 4-(3′-chloro-2′-fluorophenylamino)-6-[3-(1-oxa-3,8-diazaspiro[4.5]decane-2-ketone-8-yl)-propoxy]-7-methoxyquinazoline]	0.1 to 10
COc1cc2ncnc(Nc3cccc(Cl)c3F)c2cc1OCCCN1CCC2(CCNC2=O)C1 (stereo not shown) [Example 29, 4-(3′-chloro-2′-fluorophenylamino)-6-[3-(2,7-diazaspiro[4.4]nonane-1-ketone-7-yl)-propoxy]-7-methoxyquinazoline]	10 to 100
COc1cc2ncnc(Nc3cccc(Cl)c3F)c2cc1OCCCN1CC2(CNC(=O)O2)C1 [Example 36, 4-(3′-chloro-2′-fluorophenylamino)-6-[3-(5-oxa-2,7-diazaspiro[3.4]octane-6-ketone-2-yl)-propoxy]-7-methoxyquinazoline]	0.1 to 10
COc1cc2ncnc(Nc3cc(Cl)ccc3F)c2cc1OCCCN1C2CCC1COC2 [Example 16, 4-(5′-chloro-2′-fluorophenylamino)-6-[3-(3-oxa-8-azabicyclo[3.2.1]octane-8-yl)-propoxy]-7-methoxyquinazolin]	10 to 100
COc1cc2ncnc(Nc3cccc(Cl)c3F)c2cc1OCCCN1CCC2(COC2)C1 [Example 28, 4-(3′-chloro-2′-fluorophenylamino)-6-[3-(2-oxa-6-azaspiro[3.4]octane-6-yl)-propoxy]-7-methoxyquinazoline]	10 to 100
C#Cc1cccc(Nc2ncnc3cc(OC)c(OCCCN4CC5(CNC(=O)C5)C4)cc23)c1 [Example 45, 4-(3′-ethynylphenylamino)-6-[3-(2,6-diazaspiro[3.4]octane-7-ketone-2-yl)-propoxy]-7-methoxyquinazoline]	10 to 100
COc1cc2ncnc(Nc3ccc(F)c(Cl)c3)c2cc1OCCN1CC[C@H]2OCC[C@H]21 (relative stereo) [Example 54]	> 1000
COc1cc2ncnc(Nc3ccc(F)c(Cl)c3)c2cc1OCCCN1CC2CCC(C1)O2 [Example 93, 4-(3′-chloro-4′-fluorophenylamino)-6-[3-(8-oxa-3-aza-azabicyclo[3.2.1]octane-3-yl)-propoxy]-7-methoxyquinazoline]	100 to 1000
C#Cc1cccc(Nc2ncnc3cc(OC)c(OCCCN4CCC5(CCN(C)C5)C4)cc23)c1 (stereo not shown) [Example 68, 4-(3′-ethynylphenylamino)-6-[3-(7-methyl-2,7-diazaspiro[4.4]nonyl)-propoxy]-7-methoxyquinazoline]	10 to 100
COc1cc2ncnc(Nc3ccc(F)c(Cl)c3)c2cc1OCCN1CC2(CCOCC2)C1 [Example 53, 4-(3′-chloro-4′-fluorophenylamino)-6-[3-(7-oxa-2-azaspiro[3.5]nonane-2-yl)-oxethyl]-7-methoxyquinazoline]	10 to 100

Now from value to molecule:

IC50 [nM]	SMILES
0.1 to 10	COc1cc2ncnc(Nc3ccc(F)c(Cl)c3)c2cc1OCCCN1CCC2(CC1)CNC(=O)C2 [Example 79]
10 to 100	COc1cc2ncnc(Nc3ccc(F)c(Cl)c3)c2cc1OCCCN1CCC2(C1)CN(C)C(=O)O2 (stereo not shown) [Example 89, 4-(3′-chloro-4′-fluorophenylamino)-6-[3-[3-methyl-1-oxa-3,7-diazaspiro[4.4]nonane-2-ketone-7-yl)-propoxy]-7-methoxyquinazoline]
10 to 100	COc1cc2ncnc(Nc3cccc(Cl)c3F)c2cc1OCCCN1CCC2(CC1)CC(=O)N(C)C2 [Example 31, 4-(3′-chloro-2′-fluorophenylamino)-6-[3-(2-methyl-2,8-diazaspiro[4.5]decane-3-ketone-8-yl)-propoxy]-7-methoxyquinazoline]
10 to 100	COc1cc2ncnc(Nc3ccc(F)c(Cl)c3)c2cc1OCCCN1CCC2(CC1)CNC(=O)O2 [Example 87, 4-(3′-chloro-4′-fluorophenylamino)-6-[3-(1-oxa-3,8-diazaspiro[4.5]decane-2-ketone-8-yl)-propoxy]-7-methoxyquinazoline]
10 to 100	[2H]C([2H])([2H])Oc1cc2ncnc(Nc3ccc(F)c(Cl)c3)c2cc1OCCCN1CCC2(C1)CN(C)C(=O)O2 (stereo not shown) [Example 96, 4-(3′-chloro-4′-fluorophenylamino)-6-[3-(3-methyl-1-oxa-3,7-diazaspiro[4.4]nonane-2-ketone-7-yl)-propoxy]-7-deuterated methoxyquinazoline]
10 to 100	C#Cc1cccc(Nc2ncnc3cc(OC)c(OCCCN4CCC5(CC4)CC(=O)N(C)C5)cc23)c1 [Example 73, 4-(3′-ethynylphenylamino)-6-[3-(2-methyl-2,8-diazaspiro[4.5]decane-3-ketone-8-yl)-propoxy]-7-methoxyquinazoline]
10 to 100	COc1cc2ncnc(Nc3cc(Cl)ccc3F)c2cc1OCCCN1CCC2(CCC(=O)N2)CC1 [Example 25, 4-(5′-chloro-2′-fluorophenylamino)-6-[3-(1,8-diazaspiro[4.5]decane-2-ketone-8-yl)-propoxy]-7-methoxyquinazoline]
10 to 100	COc1cc2ncnc(Nc3cccc(Cl)c3F)c2cc1OCCCN1CCC2(CCC(=O)N2)CC1 [Example 32, 4-(3′-chloro-2′-fluorophenylamino)-6-[3-(1,8-diazaspiro[4.5]decane-2-ketone-8-yl)-propoxy]-7-methoxyquinazoline]
10 to 100	COc1cc2ncnc(Nc3ccc(F)c(Cl)c3)c2cc1OCCCN1CCC2(CCN(C)C2)C1 (stereo not shown) [Example 76, 4-(3′-chloro-4′-fluorophenylamino)-6-[3-(7-methyl-2,7-diazaspiro[4.4]nonane-2-yl)-propoxy]-7-methoxyquinazoline]
> 1000	COc1cc2ncnc(Nc3ccc(F)c(Cl)c3)c2cc1OCCCN1CCC2(CCCN(C(=O)OC(C)(C)C)C2)C1 (stereo not shown) [Example 77, 4-(3′-chloro-4′-4-fluorophenylamino)-6-[3-(7-tertbutyloxycarbonyl-2,7-diazaspiro[4.5]decane-2-yl)-propoxy]-7-methoxyquinazoline]
10 to 100	COc1cc2ncnc(Nc3cc(Cl)ccc3F)c2cc1OCCCN1CCC2(CC1)CNC(=O)C2 [Example 21, 4-(5′-chloro-2′-fluorophenylamino)-6-[3-(2,8-diazaspiro[4.5]decyl-3-ketone-8-yl)-propoxy]-7-methoxyquinazoline]
10 to 100	COc1cc2ncnc(Nc3ccc(F)c(Cl)c3)c2cc1OCCCN1CCC2(CC1)CCN(C)C2=O [Example 85]
10 to 100	[2H]C([2H])([2H])Oc1cc2ncnc(Nc3ccc(F)c(Cl)c3)c2cc1OCCCN1CCC2(CC1)CNC(=O)O2 [Example 95, 4-(3′-chloro-4′-fluorophenylamino)-6-[3-(1-oxa-3,8-diazaspiro[4.5]decane-2-ketone-8-yl)-propoxy]-7-deuterated methoxyquinazoline]
10 to 100	COc1cc2ncnc(Nc3cc(Cl)ccc3F)c2cc1OCCCN1CCC2(CCN(C)C2=O)C1 (stereo not shown) [Example 23, 4-(5′-chloro-2′-fluorophenylamino)-6-[3-(2-methyl-2,7-diazaspiro[4.4]nonane-1-ketone-7-yl)-propoxy]-7-methoxyquinazoline]

Reference: patent US9546179B2, “Heterocycle amido alkyloxy substituted quinazoline derivative and use thereof” (priority 2011, dated 2017)
